Measurements as given in the supplement of paper PMC10307832.

Legend:
Assay in all cases: relative viability (nuclei count vs DMSO), 5 days (fraction); higher = more cells survive
Darinaparsin + OSI-027 = compound: C[As](C)SC[C@H](NC(=O)CC[C@H](N)C(=O)O)C(=O)NCC(=O)O [Darinaparsin] + COc1cccc2cc(-c3nc([C@H]4CC[C@H](C(=O)O)CC4)n4ncnc(N)c34)[nH]c12 [OSI-027] (partner 0.5 µM)
How it was run: (§1)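 Relative viability was taken as the ratio of nuclei in treated wells to nuclei in vehicle wells. Lung cancer cell lines in 1536-well plates received compounds by pin tool one day after seeding, either one drug alone or a fixed anchor-drug dose plus five library-drug doses (not always all listed) in √10 steps. Nuclei were counted on 4× images after 5 days of treatment, and values are medians of duplicate plates.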

AZ628 + Foretinib = compound: CC1=C(C=C(C=C1)NC(=O)C2=CC(=CC=C2)C(C)(C)C#N)NC3=CC4=C(C=C3)N=CN(C4=O)C [AZ628] + COc1cc2c(Oc3ccc(NC(=O)C4(C(=O)Nc5ccc(F)cc5)CC4)cc3F)ccnc2cc1OCCCN1CCOCC1 [Foretinib] (partner 0.25 µM)
How it was run: as §1

QS11 + Pemetrexed = compound: C1CC2=C(C1)C=C(C=C2)OC3=NC(=C4C(=N3)N(C=N4)CC5=CC=C(C=C5)C6=CC=CC=C6)N[C@@H](CC7=CC=CC=C7)CO [QS11] + Nc1nc2[nH]cc(CCc3ccc(C(=O)N[C@@H](CCC(=O)O)C(=O)O)cc3)c2c(=O)[nH]1 [Pemetrexed] (partner 0.2 µM)
How it was run: as §1

QS11 + Luminespib = compound: C1CC2=C(C1)C=C(C=C2)OC3=NC(=C4C(=N3)N(C=N4)CC5=CC=C(C=C5)C6=CC=CC=C6)N[C@@H](CC7=CC=CC=C7)CO [QS11] + CCNC(=O)c1noc(-c2cc(C(C)C)c(O)cc2O)c1-c1ccc(CN2CCOCC2)cc1 [Luminespib] (partner 0.01 µM)
How it was run: as §1

Row | Cell Line | relative viability (Darinaparsin + OSI-027; first compound 0.08 µM) | relative viability (Darinaparsin + OSI-027; first compound 0.8 µM) | relative viability (Darinaparsin + OSI-027; first compound 2.53 µM) | relative viability (Darinaparsin + OSI-027; first compound 8 µM) | relative viability (AZ628 + Foretinib; first compound 0.08 µM) | relative viability (AZ628 + Foretinib; first compound 0.253 µM) | relative viability (AZ628 + Foretinib; first compound 0.8 µM) | relative viability (AZ628 + Foretinib; first compound 2.53 µM) | relative viability (AZ628 + Foretinib; first compound 8 µM) | relative viability (QS11 + Pemetrexed; first compound 0.08 µM) | relative viability (QS11 + Pemetrexed; first compound 0.253 µM) | relative viability (QS11 + Pemetrexed; first compound 0.8 µM) | relative viability (QS11 + Pemetrexed; first compound 2.53 µM) | relative viability (QS11 + Pemetrexed; first compound 8 µM) | relative viability (QS11 + Luminespib; first compound 0.08 µM) | relative viability (QS11 + Luminespib; first compound 0.253 µM) | relative viability (QS11 + Luminespib; first compound 0.8 µM) | relative viability (QS11 + Luminespib; first compound 2.53 µM) | relative viability (QS11 + Luminespib; first compound 8 µM)
1 | NCI-H1355 | 0.432 | 0.352 | 0.34 | 0.372 | 0.976 | 0.937 | 1.03 | 1.02 | 0.871 | 1.03 | 0.993 | 0.782 | 1.08 | 1.02 | 0.743 | 0.696 | 0.602 | 0.727 | 0.703
2 | NCI-H2170 | 0.734 | 0.725 | 0.697 | 0.727 | 0.992 | 1.07 | 1.03 | 1.07 | 0.913 | 0.271 | 0.288 | 0.243 | 0.274 | 0.287 | 0.603 | 0.646 | 0.766 | 0.806 | 0.665
3 | NCI-H2405 | 0.629 | 0.614 | 0.545 | 0.658 | 0.637 | 0.857 | 0.673 | 0.757 | 0.539 | 1.01 | 1.02 | 0.974 | 1.05 | 1.05 | 0.516 | 0.756 | 0.646 | 0.835 | 0.89
4 | NCI-H1703 |  |  |  |  | 0.327 | 0.41 | 0.415 | 0.302 | 0.413 |  |  |  |  |  |  |  |  |  | 
5 | HCC-78 | 0.375 | 0.394 | 0.379 | 0.372 | 0.732 | 0.748 | 0.715 | 0.621 | 0.67 | 0.918 | 0.935 | 0.894 | 0.936 | 0.857 |  |  |  |  | 
6 | NCI-H727 | 0.77 | 0.541 | 0.794 | 0.854 | 0.628 | 0.455 | 0.383 | 0.319 | 0.322 |  |  |  |  |  | 0.876 | 0.391 | 0.341 | 0.321 | 0.341
7 | Calu-6 |  |  |  |  | 0.867 | 0.726 | 0.636 | 0.816 | 0.142 |  |  |  |  |  |  |  |  |  | 
8 | NCI-H1299 |  |  |  |  | 1.12 | 1.3 | 1.3 | 1.24 | 0.58 |  |  |  |  |  |  |  |  |  | 
9 | NCI-H522 | 0.617 | 0.644 | 0.623 | 0.712 |  |  |  |  |  | 0.824 | 1.02 | 0.878 | 1 | 0.884 | 1.01 | 1.35 | 0.945 | 0.98 | 1.17
10 | NCI-H1648 | 0.297 | 0.237 |  | 0.269 |  |  |  |  |  | 0.762 | 0.713 | 0.637 | 0.748 | 0.875 |  |  |  |  | 
11 | NCI-H1792 | 0.847 | 0.604 | 0.866 | 0.96 |  |  |  |  |  |  | 0.603 | 0.925 | 0.629 | 0.514 | 0.432 | 0.417 | 0.386 | 0.369 | 0.409
12 | IA-LM |  |  |  |  | 1.28 | 1.04 | 0.821 | 0.861 | 0.2 |  |  |  |  |  |  |  |  |  | 
13 | HCC-366 | 1.23 | 1.1 | 0.955 | 1.62 | 0.885 | 0.884 | 0.781 | 0.892 | 0.372 | 0.163 | 0.139 |  | 0.175 | 0.136 |  |  |  |  | 
